In ChEMBL document CHEMBL3400046, “Discovery and evaluation of a novel monocyclic series of CXCR2 antagonists” (Bioorg Med Chem Lett, 2015):

Legend:
[1] = Dissociation constant, pKa of the compound; format: physicochemical
physchem = conditions: octanol/water
in vitro [2] = conditions: human, Caco-2
Rattus norvegicus = assay: Dose normalized AUC in po dosed rat; format: ADME, organism-based; conditions: in vivo
[3] = Bioavailability in iv dosed rat; format: ADME, organism-based; conditions: in vivo
in vivo = conditions: rat, iv
[4] = Half life in iv dosed rat; format: ADME, organism-based; conditions: in vivo
in vitro [5] = conditions: human, hepatocytes
[6] = Volume of distribution at steady state in iv dosed rat; format: ADME, organism-based; conditions: in vivo, read-out: Vdss
[7] = Fraction of the dose absorbed in iv dosed rat; format: ADME, organism-based; conditions: in vivo, read-out: Fabs
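For logD in this document: distribution coefficient determined with the shake-flask method.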

Row | Compound | pKa [1] | logD (physchem) | hepatocyte CLint (in vitro [5]) [µL/min/1e6 cells] | other results
1 | C[C@H](CO)Nc1cc(C(=O)O)nc(SCc2ccccc2)n1 | 5.5 | -0.7 |  | 
2 | C[C@H](CO)Nc1cc(C(=O)NS(C)(=O)=O)nc(SCc2ccccc2)n1 | 4.9 | -0.7 |  | 
3 | C[C@H](CO)Nc1cc(NS(C)(=O)=O)nc(SCc2ccccc2)n1 | 6.9 | 1.9 |  | 
4 | C[C@H](CO)Nc1cc(NS(=O)(=O)Cc2ccccc2)nc(SCc2ccccc2)n1 |  | 2.7 |  | 
5 | C[C@H](CO)Nc1cc(NS(=O)(=O)C(F)(F)F)nc(SCc2ccccc2)n1 | 5.8 | 2.2 |  | 
6 | C[C@H](CO)Nc1cc(NS(=O)(=O)c2ccccc2)nc(SCc2ccccc2)n1 | 6.6 | 2.5 |  | 
7 | C[C@H](CO)Nc1cc(NS(=O)(=O)c2ccc(Cl)cc2)nc(SCc2ccccc2)n1 | 6.5 | 3.5 |  | 
8 | C[C@H](CO)Nc1cc(NS(=O)(=O)c2ccc(C#N)cc2)nc(SCc2ccccc2)n1 | 6.1 | 2.6 |  | 
9 | C[C@H](CO)Nc1cc(NS(=O)(=O)N(C)C)nc(SCc2ccccc2)n1 | 7.3 | 2.6 |  | 
10 | C[C@H](CO)Nc1cc(NS(=O)(=O)c2cn(C)cn2)nc(SCc2cccc(F)c2F)n1 |  | 1.6 |  | 
11 | C[C@H](CO)Nc1cc(NS(=O)(=O)c2cn(C)cn2)nc(SCc2cccc(Cl)c2F)n1 |  | 2 |  | Papp A→B (in vitro [2]): 1.4 ×10⁻⁶ cm/s
12 | C[C@H](CO)Nc1cc(NS(=O)(=O)N(C)C)nc(SCc2cccc(Cl)c2F)n1 |  | 3.4 |  | Papp A→B (in vitro [2]): 6.4 ×10⁻⁶ cm/s
13 | C[C@H](CO)Nc1cc(NS(=O)(=O)N2CCNCC2)nc(SCc2cccc(Cl)c2F)n1 |  | 1.5 |  | Papp A→B (in vitro [2]): 0.1 ×10⁻⁶ cm/s
14 | C[C@H](CO)Nc1cc(NS(=O)(=O)N2CCC2)nc(SCc2cccc(F)c2F)n1 |  | 2.6 | 3.1 | AUC/dose (Rattus norvegicus): 5.9 µM·h; bioavailability [3]: 44%; clearance (in vivo): 8 mL/min/kg; half-life [4]: 192 min; Vd [6]: 1.4 L/kg; Papp A→B (in vitro [2]): 10.1 ×10⁻⁶ cm/s; Fa [7]: 50%
15 | C[C@H](CO)Nc1cc(NS(=O)(=O)N2CCC2)nc(SCc2cccc(Cl)c2F)n1 |  | 3.2 | 2.4 | 
16 | C[C@H](CO)Nc1cc(NS(=O)(=O)N2CCCC2)nc(SCc2cccc(F)c2F)n1 |  | 3.4 | 12 | Papp A→B (in vitro [2]): 7.5 ×10⁻⁶ cm/s
17 | C[C@H](CO)Nc1cc(NS(=O)(=O)N2CCCCC2)nc(SCc2cccc(F)c2F)n1 |  | 3.9 | 30 | 
18 | C[C@H](CO)Nc1cc(NS(=O)(=O)N2CCOCC2)nc(SCc2cccc(F)c2F)n1 |  |  | 4.6 | AUC/dose (Rattus norvegicus): 1.6 µM·h; bioavailability [3]: 31%; clearance (in vivo): 25 mL/min/kg; half-life [4]: 60 min; Vd [6]: 1.1 L/kg; Fa [7]: 48%
19 | C[C@H](CO)Nc1cc(NS(=O)(=O)N2CCOCC2)nc(SCc2cccc(Cl)c2F)n1 |  | 3.1 | 8 | Papp A→B (in vitro [2]): 5.4 ×10⁻⁶ cm/s
20 | C[C@H](CO)Nc1nc(SCc2cccc(F)c2F)nc2nc(N)sc12 |  |  |  | AUC/dose (Rattus norvegicus): 0.7 µM·h; bioavailability [3]: 9%; Fa [7]: 12%
21 | C[C@H](CO)Nc1nc(SCc2cccc(F)c2F)nc2[nH]c(=O)sc12 |  |  | 15 | AUC (Rattus norvegicus): 2.1 µM·h; bioavailability [3]: 22%; clearance (in vivo): 6 mL/min/kg; half-life [4]: 66 min; Vd [6]: 0.3 L/kg; Fa [7]: 24%
